Results as given in patent publication US8716289B2, “Carbamate derivatives of alkyl-heterocycles, preparation thereof and therapeutic use thereof” (Sanofi, priority 2008, dated 2014).

Tests used:
[1] = molecular target: T1, enzyme FAAH (Fatty Acid Amide Hydrolase) (Mus musculus, UniProt O08914); assay: FAAH fluorescent enzymatic test, hydrolysis of AAMC (Protocol 2); type: biochemical; conditions: mouse brain homogenate, AAMC 10 μM, preincubation 20 min at 25° C.
T1 construct: The membrane homogenates are prepared extemporaneously by homogenizing the tissues; from tissue; host or cells: mouse brain (minus the cerebellum), membrane homogenate
T1 sequence (O08914 1-579): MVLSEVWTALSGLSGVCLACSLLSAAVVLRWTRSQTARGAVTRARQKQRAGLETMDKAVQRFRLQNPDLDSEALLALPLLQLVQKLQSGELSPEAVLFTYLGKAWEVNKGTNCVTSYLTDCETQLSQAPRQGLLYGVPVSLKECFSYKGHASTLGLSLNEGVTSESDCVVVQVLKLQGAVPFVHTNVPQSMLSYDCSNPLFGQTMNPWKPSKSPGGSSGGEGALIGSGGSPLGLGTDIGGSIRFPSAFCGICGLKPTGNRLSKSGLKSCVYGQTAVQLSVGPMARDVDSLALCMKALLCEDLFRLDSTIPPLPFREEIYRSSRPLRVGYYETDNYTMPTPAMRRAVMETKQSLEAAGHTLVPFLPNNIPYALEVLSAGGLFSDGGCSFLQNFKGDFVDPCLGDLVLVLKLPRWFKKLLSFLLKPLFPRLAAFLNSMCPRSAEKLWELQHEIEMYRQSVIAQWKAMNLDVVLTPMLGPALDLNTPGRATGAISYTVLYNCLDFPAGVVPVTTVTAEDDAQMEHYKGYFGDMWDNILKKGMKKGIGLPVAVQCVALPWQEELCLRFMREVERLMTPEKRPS
Procedure: Thus, mouse brains (minus the cerebellum) are withdrawn and stored at −80° C. The brain homogenates are prepared extemporaneously by homogenizing the tissues using a Precellys® machine in reaction buffer (10 mM Tris-HCl, pH=8, 150 mM NaCl and 1 mM ethylenediaminetetraacetic acid (EDTA)). The enzymatic reaction is performed in black polystyrene 384-well plates in a final volume of 50 μL. Reaction buffer supplemented with fatty acid-free bovine serum albumin (BSA, 1 mg/ml) is used for the enzymatic reaction, the dilution of the compounds and the dilution of the AAMC. Reaction buffer containing the BSA (25 μL/well), the diluted test compounds at different concentrations (5 μL/well containing 1% DMSO) and the membrane preparation (10 μL/well, i.e. 200 μg of tissue per test) are successively added to the wells. After preincubation for 20 minutes of the compounds with the enzyme at 25° C., the reaction is started by adding 10 μL of substrate per well (AAMC, final concentration of 10 μM). After incubation for 40 minutes, the aminomethyl coumarin (AMC) produced is measured by fluorescent counting (Envision plate reader).

For CNC(=O)c1cc(COC(=O)NCCC2CCN(c3ccc(-c4ccc(F)cc4)cc3)CC2)on1 [Compound 29, 3-methylcarbamoylisoxazol-5-ylmethyl 2-[1-(4′-fluorobiphenyl-4-yl)piperidin-4-yl]ethylcarbamate], the melting point was 212 to 215 °C and the IC50 [1] was 0.7 nM.
